{"source": "patent US20250257364A1", "about": "“RNA-GUIDED DNA TRANSPOSITION” (priority 2024, published 2025)", "key": {"E. coli genome": {"tested_on": "E. coli genome", "assay": "Tn-seq of CRISPRt transposon insertion sites (specificity, orientation)", "format": "cell-based, E. coli K-12", "settings": "insertions ~49 bp downstream of protospacer", "from_the_text": "FIGS. 1a-e illustrate a mobilizable, selectable, dual-plasmid system for CRISPR-guided transposition. 1a. Schematic of a targeted transposition gene knockout (CRISPRt) and gene overexpression (CRISPRtOE) system optimized for functional genomics. 1b. Schematic of mechanism of Vibrio cholera Type I-F CRISPR-associated transposon (Vc CAST) system. 1c. Schematic of strain construction using the CRISPRt targeted transposition system. Plasmids have pir-dependent origins of replication preventing replication in the bacterial recipient. […] Inside the recipient cell, the transposon (flanked in yellow) is inserted onto the chromosome at a site determined by the sequence of the guide RNA. […] Specificity of CRISPRt disruption of gfp and lacZ in E. coli measured by Tnseq. Mapping of location of transposon insertion sites to the E. coli genome after CRISPRt targeted transposition with gfp1 guide (226,671 reads) or LZ1 guide (216,801 reads). […]\nTnseq analysis of CRISPRt/CRISPRtOE constructs. […] PCR products were spin-purified (eluted in 15 μl) and quantified fluorometrically. […] Briefly, PCR products were amplified with nested primers containing i5 and i7 indexes and Illumina® TruSeq™ adapters followed by bead cleanup, quantification, pooling and running on a NovaSeq X Plus (150 bp paired end reads) or MiSeq (250 bp paired end reads). […]"}, "lacZ": {"tested_on": "lacZ", "assay": "CRISPRt disruption of lacZ, blue-white screening of transconjugants", "format": "cell-based, E. coli K-12", "settings": "lacZ targeted", "protocol": "Transfer of the CRISPRt/CRISPRtOE system to the bacterial chromosome. CRISPRt and CRISPRtOE strains were constructed by triparental mating of two E. coli donor strains-one with the pCRISPRt-H plasmid encoding Cas678-TniQ-TnsABC and another with the pCRISPRt-T or pCtOE plasmid containing the transposon with the guide RNA and antibiotic resistance- and a recipient strain (Table 1). All conjugations and selection post-conjugation were carried out at 30° C. regardless of the normal incubation temperature for the organism. Isolated donor and recipient strains were struck out on plates with the appropriate media and antibiotic (if relevant) concentrations. Colonies were resuspended from plates into the growth medium used for the recipient to a density of OD600=9. […]\nFor lacZ targeted CRISPRt, the color of 80 individual colonies was determined by patching on LB agar plates containing X-gal (20 μg/ml). […]\nTo test the precision of CRISPRt, both endogenous (lacZ) and heterologous (gfp) reporter genes were targeted for disruption in E. coli K-12 (data not shown). […] Next, targeting on the genome scale was determined by sequencing genomic DNA at the Tn6677 transposon junction (Tn-seq) using Illumina®-based Next Generation Sequencing (NGS). […]"}, "[1]": {"tested_on": "E. coli folA CRISPRtOE isolates vs parent strains", "settings": "TMP 0.04-20 μg/ml, MHB, 20 h", "procedure": "MIC assays. The minimal inhibitory concentration (MIC) of E. coli folA and murA CRISPRtOE isolates was determined by either growth in a microtiter plate or by disc diffusion assays, respectively. For the broth microdilution assay, CRISPRtOE isolates and WT controls were grown to saturation from an isolated colony and serially diluted to OD600=0.003) and the CRISPRtOE library was diluted from a glycerol stock to the same density. […] E. coli folA CRISPRtOE isolates, the folA CRISPRtOE library, a lacZ CRISPRtOE control, and WT cultures and the media containing antibiotic were mixed in equal proportions and incubated 20 h shaking at 37° C. prior to cell density (OD600) determination in a microplate reader. For the MIC strip assays, E. coli folA or murA CRISPRtOE isolates, a lacZ CRISPRtOE control, and WT cultures were diluted to OD600=0.3 and 300 μl was spread on a 100 mm MH agar plate and dried in a laminar flow cabinet. When dry, MIC strips (Liofilchem, Italy; 920371 (TMP 0.002-32 mg/L) and 920791(FOS 0.064-1024 mg/L)) were applied to the plate and 10 μl serially diluted antibiotics were applied to the discs. Plates were incubated at 37° C. for 18 h. Broth microdilution assays were repeated 3 times and MIC test strip assays twice."}, "[2]": {"tested_on": "E. coli folA CRISPRtOE strains vs lacZ controls", "procedure": "(§1) CRISPRtOE library growth experiments. Competition experiment growth. The E. coli CRISPRtOE murA and folA libraries were mixed in equal volume with the LP-lacZ library: 50 μl frozen stock (OD600=10) of each library (murA+LP-lacZ and folA+LP-lacZ) into 100 ml LB (starting OD600=0.01) in a 500 ml flask and incubated shaking at 37° C. until OD600=0.2 (˜2.5 h) (timepoint=T0) to revive the cells. […] (T1). These cultures were serially diluted back to OD600=0.01 into fresh tubes containing the same media and incubated again with shaking for 18 h at 37° C. (T2) for a total of ˜10-15 doublings. Cells were pelleted from 15 ml of culture in duplicate at each time point T0 and 1 ml of culture at timepoints T1 and T2 and stored at −20° C.\n(§2) To test for overexpression phenotypes, the folA or murA library was mixed 50:50 with the lacZ control library and cells were grown in the presence/absence of TMP or FOS, respectively."}, "[3]": {"tested_on": "E. coli whole genome CRISPRtOE library (promoter H)", "procedure": "Whole genome experiment growth. The E. coli CRISPRtOE whole genome libraries with no promoter (sJMP10704) or promoter H (sJMP10705) were revived by dilution of 100 μl frozen stock (OD600=15) into 100 ml LB (starting OD600=0.015) and incubation in 500 ml flasks shaking at 37° C. until OD600=0.2 (˜2.5 h) (timepoint=TO). […] (T1). These cultures were serially diluted back to OD600=0.01 into fresh tubes containing the same media and incubated again with shaking for 18 h at 37° C. (T2) for a total of ˜10-15 doublings. Cells were pelleted from 15 ml of culture in duplicate at time point TO and 1 ml of culture at timepoints T1 and T2 and stored at −20° C.\nA custom Python script (counting_spacers.py) was used to determine the number of times each spacer appeared in the filtered alignment file. […] Pairwise comparison of spacer counts in DMSO and TMP treatment samples was performed using edgeR^70 and a custom Rscript (comparison_of_spacer_counts_edgeR.R). The results were plotted using a custom Rscripts (plotting_scatter_plot.R, barplot_with_points.R, scatter_plot_commands.R). […]\nTo test the ability of CRISPRtOE to identify antibiotic-relevant gene phenotypes at the genome-scale, the libraries were grown in the presence or absence of a sub-lethal concentration of TMP and relative strain abundance was measured."}, "[4]": {"tested_on": "E. coli murA CRISPRtOE strains vs lacZ controls", "assay": "CRISPRtOE pooled library competitive growth assay with fosfomycin", "format": "cell-based, E. coli K-12", "settings": "fosfomycin 0.4 μg/ml, ~10-15 doublings", "procedure": "as §1, §2"}}, "data": [{"molecule": "lacZ: gRNA spacer LZ1 (Petassi, PMID: 33271061), SEQ ID NO: 16, targeting lacZ (guide CAACTTAATCGCCTTGCAGCACATCCCCCTTT; chemistry not given here)", "values": [{"measurement": "insertions in R-L orientation", "setting": "E. coli genome", "value": 74.1, "unit": "%"}, {"measurement": "transconjugants showing the expected disruption phenotype", "setting": "lacZ", "value": 100, "unit": "%"}]}, {"molecule": "COc1cc(Cc2cnc(N)nc2N)cc(OC)c1OC", "note": "[TMP, trimethoprim]", "values": [{"measurement": "shift in MIC between parent strains and folA CRISPRtOE isolates", "setting": "[1]", "value": "15 to 30", "unit": "fold"}, {"measurement": "increase in abundance of folA OE strains relative to lacZ controls", "setting": "[2]", "value": 22, "unit": "fold"}, {"measurement": "enrichment of folA-associated spacers", "setting": "[3]", "value": "> 1000", "unit": "fold"}]}, {"molecule": "C[C@@H]1O[C@@H]1P(=O)(O)O", "note": "[FOS, fosfomycin]", "values": [{"measurement": "increase in abundance of murA OE strains relative to lacZ controls", "setting": "[4]", "value": 52, "unit": "fold"}]}]}
